In PubChem BioAssay AID624376 (Broad Institute, 2012):
Records with an inconclusive call do not appear. The source made the active and inactive calls. The rule behind the calls is not given here.

Experiments:
[1] = tested on: LMP1-induced NF-kappaB luciferase reporter cells, luminescence; assay: LMP1-driven NF-kB reporter inhibition, dose response, cell-based, luciferase reporter, luminescence, dry powder, set 2 (AID 624376)
[2] = as above; conditions: LMP1-induced NF-kappaB luciferase reporter cells, luminescence; at 35 µM (top of the series)

Row | SMILES | AC50 [1] | activity change, negative = inhibition [2]
1 | O=C(C[C@@H]1C[C@H]2c3cc(NC(=O)c4ccc5c(c4)OCO5)ccc3O[C@H]2[C@H](CO)O1)NC1CCCCC1 | 16.8 µM | –
2 | N#C[C@H]1[C@@H](c2ccc(-c3cccnc3)cc2)[C@@H](CO)N1C(=O)Nc1ccc(F)cc1 | 13.9 µM | –
3 | O=C(C[C@@H]1C[C@H]2c3cc(NS(=O)(=O)c4ccc(F)cc4)ccc3O[C@H]2[C@@H](CO)O1)NCc1ccc(Oc2ccccc2)cc1 | 15.3 µM | –
4 | CC(C)NC(=O)N1Cc2cc(C(=O)NC3Cc4ccccc4C3)nc(-c3cccc(-c4cccnc4)c3)c2[C@H]1CCO | 33.6 µM | –
5 | CC(C)(C)[S@@](=O)N1Cc2cc(C(=O)NCc3ccccc3F)nc(-c3cccc(-c4cccnc4)c3)c2[C@H]1CCO | 35.6 µM | –
6 | O=C(Nc1ccc(C(F)(F)F)cc1)Nc1ccc2c(c1)[C@H]1C[C@H](CC(=O)N3CCc4ccccc4C3)O[C@H](CO)[C@H]1O2 | 24.2 µM | –
7 | COc1cccc(C#Cc2ccc([C@@H]3[C@@H](C#N)N(C(=O)c4ccccn4)[C@@H]3CO)cc2)c1 | 19.2 µM | –
8 | O=C(Nc1ccc(C(F)(F)F)cc1)Nc1ccc2c(c1)[C@@H]1C[C@H](CC(=O)N3CCc4ccccc4C3)O[C@H](CO)[C@@H]1O2 | 18.3 µM | –
9 | COc1ccccc1C#Cc1ccc([C@H]2[C@H](C#N)N(C(=O)C3CC3)[C@H]2CO)cc1 | 30.5 µM | –
10 | COc1ccccc1C#Cc1ccc2c(c1)O[C@H](CN(C)Cc1cccnc1)[C@@H](C)CN([C@@H](C)CO)S2(=O)=O | 13.9 µM | –
11 | Cc1cc(C(=O)Nc2ccc3c(c2)C(=O)N(C)[C@H]2CC[C@@H](CC(=O)NCc4ccc(-c5ccccc5)cc4)O[C@H]2CO3)no1 | 10.8 µM | –
12 | C[C@@H]1CN([C@H](C)CO)S(=O)(=O)c2ccc(/C=C/c3ccccc3)cc2O[C@H]1CN(C)C(=O)NC1CCCCC1 | 25.3 µM | –
13 | N#C[C@H]1[C@H](c2ccc(C#Cc3ccccc3F)cc2)[C@H](CO)N1C(=O)c1cccnc1 | 12.6 µM | –
14 | Cc1cc(C(=O)Nc2ccc3c(c2)C(=O)N(C)[C@@H]2CC[C@H](CC(=O)NCc4ccc(-c5ccccc5)cc4)O[C@H]2CO3)no1 | 1.6 µM | –
15 | N#C[C@H]1N[C@H](CO)[C@H]1c1ccc(C#Cc2ccccc2F)cc1 | < 0.26 µM | –
16 | CCCNC(=O)c1cc2c(c(-c3cccc(-c4cccc(F)c4)c3)n1)[C@H](CCO)N([S@@](=O)C(C)(C)C)C2 | 22.7 µM | –
17 | O=C(C[C@@H]1CC[C@@H]2[C@H](COC[C@@H](O)CN2Cc2ccc3c(c2)OCO3)O1)Nc1ccc(-c2ccccc2)cc1 | 10.2 µM | –
18 | O=C(C[C@@H]1C[C@@H]2c3cc(NC(=O)c4ccc5c(c4)OCO5)ccc3O[C@@H]2[C@@H](CO)O1)NCc1ccc(Oc2ccccc2)cc1 | 9.85 µM | –
19 | O=C(C[C@H]1C[C@@H]2c3cc(NS(=O)(=O)c4ccc(F)cc4)ccc3O[C@@H]2[C@@H](CO)O1)NCc1ccc(Oc2ccccc2)cc1 | 13.5 µM | –
20 | Cc1ccc(S(=O)(=O)N(C)C[C@H]2Oc3cc(C#Cc4ccncc4)ccc3S(=O)(=O)N([C@@H](C)CO)C[C@@H]2C)cc1 | 21.2 µM | –

Row | SMILES | AC50 [1] | activity change, negative = inhibition [2]
21 | CC(C)(C)[S@](=O)N1Cc2cc(C(=O)NCC(F)(F)F)nc(-c3cccc(-c4cccc(F)c4)c3)c2[C@@H]1CCO | 11.9 µM | –
22 | COc1ccc(-c2cccc(-c3nc(C(=O)NCC(F)(F)F)cc4c3[C@H](CCO)N([S@@](=O)C(C)(C)C)C4)c2)cc1 | 24.3 µM | –
23 | O=C(C[C@H]1C[C@@H]2c3cc(NC(=O)c4ccc5c(c4)OCO5)ccc3O[C@@H]2[C@@H](CO)O1)NCc1ccc(Oc2ccccc2)cc1 | 24.5 µM | –
24 | N#C[C@@H]1[C@H](c2ccc(C#Cc3ccccc3F)cc2)[C@@H](CO)N1C(=O)c1cccnc1 | 1.02 µM | –
25 | N#C[C@H]1[C@H](c2ccc(C#Cc3ccccc3F)cc2)[C@@H](CO)N1C(=O)c1cccnc1 | 15 µM | –
26 | C[C@H]1CN([C@@H](C)CO)S(=O)(=O)c2ccc(C#Cc3ccncc3)cc2O[C@H]1CN(C)C(=O)Nc1ccc2c(c1)OCO2 | 19.7 µM | –
27 | CC(C)NC(=O)N1Cc2cc(C(=O)NC3Cc4ccccc4C3)nc(-c3cccc(-c4cccnc4)c3)c2[C@@H]1CCO | 22 µM | –
28 | Cc1ccc(S(=O)(=O)N(C)C[C@H]2Oc3cc(C#Cc4ccncc4)ccc3S(=O)(=O)N([C@@H](C)CO)C[C@H]2C)cc1 | 21.4 µM | –
29 | CN1C(=O)c2cc(NC(=O)Cc3cccs3)ccc2OC[C@@H]2O[C@H](CC(=O)NCc3ccc(-c4ccccc4)cc3)CC[C@H]21 | 33 µM | –
30 | O=C(Nc1ccc(C(F)(F)F)cc1)Nc1ccc2c(c1)[C@@H]1C[C@H](CC(=O)N3CCc4ccccc4C3)O[C@@H](CO)[C@@H]1O2 | 15.1 µM | –
31 | C[C@H](CO)N1C[C@H](C)[C@H](CN(C)C(=O)NC2CCCCC2)Oc2cc(/C=C/c3ccccc3)ccc2S1(=O)=O | 31 µM | –
32 | CN(C)c1ccc2c(c1)[C@@H]1C[C@@H](CC(=O)NCc3ccc(Oc4ccccc4)cc3)O[C@H](CO)[C@@H]1O2 | 21.6 µM | –
33 | O=C(C[C@@H]1CC[C@@H]2[C@H](COC[C@@H](O)CN2Cc2ccc(Oc3ccccc3)cc2)O1)N1CCc2ccccc2C1 | 16.4 µM | –
34 | CN(C)C(=O)c1cccc(-c2cccc(-c3nc(C(=O)NCc4ccccc4)cc4c3[C@@H](CCO)N([S@](=O)C(C)(C)C)C4)c2)c1 | 16.9 µM | –
35 | COc1ccccc1C#Cc1ccc2c(c1)O[C@H](CN(C)Cc1cccnc1)[C@H](C)CN([C@@H](C)CO)S2(=O)=O | 17.4 µM | –
36 | CN(C)C(=O)c1ccc(-c2cccc(-c3nc(C(=O)NCc4ccccc4)cc4c3[C@@H](CCO)N([S@](=O)C(C)(C)C)C4)c2)cc1 | 13.7 µM | –
37 | Cc1cc(C(=O)Nc2ccc3c(c2)C(=O)N(C)[C@@H]2CC[C@@H](CC(=O)NCc4ccc(-c5ccccc5)cc4)O[C@H]2CO3)no1 | 25.9 µM | –
38 | COc1ccccc1C#Cc1ccc2c(c1)O[C@H](CN(C)Cc1cccnc1)[C@H](C)CN([C@H](C)CO)S2(=O)=O | 22.9 µM | –
39 | COc1ccccc1C#Cc1cnc2c(c1)C(=O)N([C@@H](C)CO)C[C@H](C)[C@@H](CN(C)C(=O)c1ccc3c(c1)OCO3)O2 | 25.9 µM | –
40 | C[C@@H]1CN([C@@H](C)CO)S(=O)(=O)c2ccc(C#Cc3ccncc3)cc2O[C@H]1CN(C)C(=O)Nc1ccc2c(c1)OCO2 | 31.6 µM | –

Row | SMILES | AC50 [1] | activity change, negative = inhibition [2]
41 | Cc1cc(C(=O)Nc2ccc3c(c2)C(=O)N(C)[C@@H]2CC[C@H](CC(=O)NCc4ccc(-c5ccccc5)cc4)O[C@@H]2CO3)no1 | 9.74 µM | –
42 | O=C(C[C@@H]1C[C@@H]2c3cc(NS(=O)(=O)c4ccc(F)cc4)ccc3O[C@@H]2[C@@H](CO)O1)NCc1ccc(Oc2ccccc2)cc1 | 8.07 µM | –
43 | Cc1cc(C(=O)Nc2ccc3c(c2)C(=O)N(C)[C@H]2CC[C@H](CC(=O)NCc4ccc(-c5ccccc5)cc4)O[C@H]2CO3)no1 | 14.7 µM | –
44 | CN(C)c1ccc2c(c1)[C@@H]1C[C@H](CC(=O)NCc3ccc(Oc4ccccc4)cc3)O[C@@H](CO)[C@@H]1O2 | 9.81 µM | –
45 | CN1C(=O)c2cc(NC(=O)c3ccc(C(F)(F)F)cc3)ccc2OC[C@@H]2O[C@@H](CC(=O)NC3Cc4ccccc4C3)CC[C@H]21 | 24.5 µM | –
46 | O=C(C[C@H]1CC[C@@H]2[C@H](COC[C@H](O)CN2Cc2ccc(Oc3ccccc3)cc2)O1)N1CCc2ccccc2C1 | 34.5 µM | –
47 | O=C(C[C@@H]1CC[C@@H]2[C@H](COC[C@H](O)CN2Cc2ccc3c(c2)OCO3)O1)Nc1ccc(-c2ccccc2)cc1 | 7.97 µM | –
48 | O=C(C[C@H]1CC[C@H]2[C@@H](COC[C@@H](O)CN2Cc2ccc3c(c2)OCO3)O1)Nc1ccc(-c2ccccc2)cc1 | 24.1 µM | –
49 | COc1cccc(S(=O)(=O)N(C)C[C@H]2Oc3cc(C4=CCCCC4)ccc3S(=O)(=O)N([C@H](C)CO)C[C@H]2C)c1 | – | -4.73% (inactive)
50 | O=C(C[C@@H]1CC[C@H]2[C@@H](COC[C@H](O)CN2Cc2ccc(Oc3ccccc3)cc2)O1)N1CCc2ccccc2C1 | 19.7 µM | –
51 | O=C(C[C@H]1C[C@H]2c3cc(NC(=O)c4ccc5c(c4)OCO5)ccc3O[C@H]2[C@H](CO)O1)NCc1ccc(Oc2ccccc2)cc1 | 18.7 µM | –
52 | C[C@@H]1CN([C@@H](C)CO)C(=O)Cc2cc(NC(=O)Cc3ccccc3)ccc2O[C@@H]1CN(C)Cc1ccc(C(F)(F)F)cc1 | – | 5.83% (inactive)
53 | O=C(C[C@H]1C[C@H]2c3cc(NS(=O)(=O)c4ccc(F)cc4)ccc3O[C@H]2[C@H](CO)O1)NCc1ccc(Oc2ccccc2)cc1 | 10 µM | –
54 | O=C(Nc1ccc(C(F)(F)F)cc1)Nc1ccc2c(c1)[C@H]1C[C@@H](CC(=O)N3CCc4ccccc4C3)O[C@@H](CO)[C@H]1O2 | 27.9 µM | –
55 | C[C@H]1CN([C@@H](C)CO)C(=O)c2cc(C#Cc3ccccc3F)cnc2O[C@@H]1CN(C)C(=O)C1CCCCC1 | 27.7 µM | –
56 | CC(C)c1ccc(NC(=O)C[C@H]2CC[C@H]3[C@@H](COc4ccc(NC(=O)Nc5ccc(F)c(F)c5)cc4C(=O)N3C)O2)cc1 | 22.2 µM | –
57 | COc1cccc(C#Cc2ccc([C@@H]3[C@H](C#N)N(C(=O)c4ccccn4)[C@H]3CO)cc2)c1 | 29.5 µM | –
58 | C[C@H]1CN([C@@H](C)CO)C(=O)Cc2cc(NC(=O)Cc3ccccc3)ccc2O[C@H]1CN(C)Cc1ccc(C(F)(F)F)cc1 | – | 18.5% (inactive)
